From ChEMBL document CHEMBL1687787, “Emergence and Distribution of Plasmids Bearing the blaOXA-51-like gene with an upstream ISAba1 in carbapenem-resistant Acinetobacter baumannii isolates in Taiwan” (2010)
Converted amounts (≈) assume the structure as drawn. The source made the active and inactive calls. The calls are words filed in the database; no cut-off is given here.

Experiments:
Acinetobacter baumannii [1] = test: Antimicrobial activity against Acinetobacter baumannii clinical isolate harboring chromosomally encoded ISAba1-blaOXA-51-like gene with fxsA upstream sequence by agar dilution method in presence of Tazobactam; format: functional, organism-based
Acinetobacter baumannii [2] = test: Antimicrobial activity against Acinetobacter baumannii clinical isolate harboring plasmid encoded ISAba1-blaOXA-51-like gene with nuc upstream sequence by agar dilution method in presence of Tazobactam; format: functional, organism-based
Acinetobacter baumannii [3] = test: Antimicrobial activity against Acinetobacter baumannii F-type isolate transformed with plasmid harboring ISAba1-blaOXA-82 by agar dilution method
Acinetobacter baumannii [4] = test: Antimicrobial activity against Acinetobacter baumannii ATCC 15151 by agar dilution method; format: functional
Acinetobacter baumannii [5] = test: Antimicrobial activity against Acinetobacter baumannii ATCC 15151 transformed with shuttle vector carrying beta-lactamase OXA-82 by agar dilution method; format: functional
Acinetobacter baumannii [6] = test: Antimicrobial activity against Acinetobacter baumannii ATCC 15151 transformed with plasmid harboring ISAba1-blaOXA-82 by agar dilution method; format: functional
Acinetobacter baumannii [7] = test: Antimicrobial activity against Acinetobacter baumannii F-type isolate by agar dilution method; format: functional

| Compound | Activity (Acinetobacter baumannii [1]) | Activity (Acinetobacter baumannii [2]) | MIC (Acinetobacter baumannii [3]) [µg/mL] | MIC (Acinetobacter baumannii [4]) [µg/mL] | MIC (Acinetobacter baumannii [5]) [µg/mL] | MIC (Acinetobacter baumannii [6]) [µg/mL] | MIC (Acinetobacter baumannii [7]) [µg/mL] |
| --- | --- | --- | --- | --- | --- | --- | --- |
| CCN1CCN(C(=O)N[C@@H](C(=O)N[C@@H]2C(=O)N3[C@@H]2SC(C)(C)[C@@H]3C(=O)O)c2ccccc2)C(=O)C1=O | inactive | inactive |  |  |  |  |  |
| C[C@@H](O)[C@H]1C(=O)N2C(C(=O)O)=C(SCCNC=N)C[C@H]12 [IMIPENEM ANHYDROUS] |  |  | 64 (≈ 214 µM) | 0.5 (≈ 1.67 µM) | 2 (≈ 6.68 µM) | 32 (≈ 107 µM) | 4 (≈ 13.4 µM) |
